The target of data set [1] is Protein farnesyltransferase (Homo sapiens, UniProt P49354+P49356). Description: Inhibition of FTase (unknown origin) assessed as transfer of [H3]farnesyl from [H3]farnesyl pyrophosphate to trichloroacetic acid-precipitable HaRas-CVLS. The data set is classed as protein-complex assay.
In data set [2] the test system is NIH-H. Kind of data set: Inhibition of inhibit anchorage-independent growth of […] NIH-H cells in soft agar by colony forming assay. The data set is classed as functional, cell-based.
Data set [3] is described as follows: Ratio of IC50 for […] NIH-H cells to IC50 for FTase (unknown origin).
A short description of data set [4]: Cmax in mouse at 25 mg/kg, po. The data set is classed as ADME, organism-based. On the set-up: dose 25 mg/kg, route oral. As to conditions: in vivo.
The test system of data set [5] is Mus musculus. Description: Antitumor activity in wap-ras transgenic mouse assessed as tumor growth inhibition at 3 mg/kg bid for 4 weeks. The data set is classed as functional, organism-based. Further details: dose 3 mg/kg.
A short description of data set [6]: AUC in rat at 10 mg/kg, po. The data set is classed as ADME, organism-based. To be noted: plasma. On the set-up: dose 10 mg/kg, route oral.
A short description of data set [7]: AUC in monkey at 25 mg/kg, po. The data set is classed as ADME, organism-based, Macaca mulatta. On the set-up: dose 25 mg/kg, route oral. As to conditions: rhesus monkey, plasma.
A short description of data set [8]: AUC in mouse at 25 mg/kg, po. The data set is classed as ADME, organism-based. Further details: dose 25 mg/kg, route oral. To be noted: plasma.
Data set [9] is described as follows: Cmax in rat at 10 mg/kg, po. The data set is classed as ADME, organism-based. Further details: dose 10 mg/kg, route oral. As to conditions: in vivo.
The nature of data set [10]: AUC in dog at 25 mg/kg, po. The data set is classed as ADME, organism-based, Canis lupus familiaris. On the set-up: dose 25 mg/kg, route oral. As to conditions: plasma.
Data set [11] can be described thus: Cmax in dog at 25 mg/kg, po. The data set is classed as ADME, organism-based, Canis lupus familiaris. On the set-up: dose 25 mg/kg, route oral. To be noted: in vivo.
Data set [12] can be described thus: Oral bioavailability in rat at 10 mg/kg. The data set is classed as ADME, organism-based. To be noted: in vivo.
Data set [13] has as its target Cytochrome P450 3A4 (Homo sapiens, UniProt P08684). Description: Inhibition of CYP3A4 (unknown origin). The data set is classed as ADME.
Data set [14] is described as follows: Cmax in monkey at 25 mg/kg, po. The data set is classed as ADME, organism-based, Macaca mulatta. As to conditions: rhesus monkey, in vivo. On the set-up: dose 25 mg/kg, route oral.
Data set [15] concerns Mus musculus. Kind of data set: Antitumor activity in wap-ras transgenic mouse assessed as tumor stasis at 10 mg/kg bid for 4 weeks. The data set is classed as functional, organism-based. On the set-up: dose 10 mg/kg.
Data set [16] can be described thus: Oral bioavailability in monkey at 5 mg/kg. The data set is classed as ADME, organism-based, Macaca mulatta. As to conditions: rhesus monkey, in vivo.
Data set [17] in a line: Oral bioavailability in dog at 5 mg/kg. To be noted: in vivo. The data set is classed as ADME, organism-based, Canis lupus familiaris.
Data set [18] concerns Mus musculus. Kind of data set: Antitumor activity in wap-ras transgenic mouse assessed as tumor growth inhibition and tumor regression administered bid for 4 weeks. The data set is classed as functional, organism-based.
In data set [19] the test system is Mus musculus. Kind of data set: Antitumor activity in wap-ras transgenic mouse assessed as tumor regression at 25 to 40 mg/kg bid for 4 weeks. The data set is classed as functional, organism-based.
Data set [20] is described as follows: Oral bioavailability in mouse at 25 mg/kg. The data set is classed as ADME, organism-based. As to conditions: in vivo.
Data set [21] concerns Mus musculus. Description: Toxicity in wap-ras transgenic mouse assessed as change in body weight at 3 to 40 mg/kg bid for 4 weeks. Further details: dose 3-40 mg/kg. The data set is classed as organism-based. To be noted: in vivo, 672 h.
Data set [22] is described as follows: AUC (0 to 6 hrs) in rat at 10 mg/kg. The data set is classed as ADME, organism-based. On the set-up: time < 6 hr, dose 10 mg/kg. As to conditions: plasma.

Each structure is given as a SMILES string. Activity calls are given as the source filed them. The calls are words filed in the database; no cut-off is given here.

Chain of Cytochrome P450 3A4 (P08684 whole entry): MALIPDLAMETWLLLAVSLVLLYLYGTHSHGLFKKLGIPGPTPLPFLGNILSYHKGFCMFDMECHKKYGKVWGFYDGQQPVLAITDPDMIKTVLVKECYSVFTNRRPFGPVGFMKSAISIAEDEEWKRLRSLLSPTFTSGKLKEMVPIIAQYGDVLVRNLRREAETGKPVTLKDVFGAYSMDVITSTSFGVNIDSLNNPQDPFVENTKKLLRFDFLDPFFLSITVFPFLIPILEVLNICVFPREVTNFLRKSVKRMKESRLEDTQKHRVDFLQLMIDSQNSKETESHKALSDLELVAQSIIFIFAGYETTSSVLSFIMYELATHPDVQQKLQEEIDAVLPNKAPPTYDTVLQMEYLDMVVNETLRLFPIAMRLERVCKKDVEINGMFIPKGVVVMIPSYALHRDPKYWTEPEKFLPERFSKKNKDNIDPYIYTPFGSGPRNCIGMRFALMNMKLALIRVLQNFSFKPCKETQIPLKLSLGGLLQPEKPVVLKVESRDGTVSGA

One may read the IC50 as the midpoint of a concentration-inhibition curve. For `Cn1cncc1C(=O)[C@@]12C[C@@H]1c1cccnc1[C@@H](N1CCN(C(=O)OC(C)(C)C)CC1)c1ccc(Cl)cc12`, the IC50 was determined as 3.2 nM in data set [1] and 8 nM in data set [2].
As to `Cn1cncc1C(C)(O)[C@@]12C[C@@H]1c1cccnc1[C@@H](N1CCN(C(=O)OC(C)(C)C)CC1)c1ccc(Cl)cc12` (stereo partly specified), the IC50 in data set [1] stood at 1.9 nM; in [2], 60 nM. Besides, in data set [3], the “Ratio IC50” value is over 30.
Turning to `Cn1cncc1C(C)(O)C1=Cc2cccnc2[C@@H](N2CCN(C(=O)OC(C)(C)C)CC2)c2ccc(Cl)cc21` (mixture of isomers), the IC50 amounted to 1.8 nM in data set [1] and 10 nM in [2].
In the case of `Cn1cncc1[C@@](C)(O)C1=Cc2cccnc2[C@@H](N2CCN(C(=O)OC3CCCC3)CC2)c2ccc(Cl)cc21`, the IC50 is 0.6 nM in data set [1] and 2 nM in data set [2].
With `Cn1cncc1[C@@](C)(O)C1=Cc2cccnc2[C@@H](N2CCN(C(=O)NC3CCCCC3)CC2)c2ccc(Cl)cc21`, the IC50 was 0.1 nM in data set [1] and 0.9 nM in [2].
On to `Cn1cncc1[C@](C)(O)C1=Cc2cccnc2[C@@H](N2CCN(C(=O)OC3CCCC3)CC2)c2ccc(Cl)cc21`, for which the IC50 in data set [1] was determined as 0.6 nM; in [2] it was 32 nM.
As to `Cn1cncc1[C@@](C)(O)C1=Cc2cccnc2[C@@H](N2CCN(C(=O)OC3(C)CCCCC3)CC2)c2ccc(Cl)cc21`, the figures for the IC50 in data set [1] and in [2] were 5.5 nM and 2 nM, respectively.
As for `Cn1cncc1[C@@](C)(O)C1=Cc2cccnc2[C@@H](N2CCN(C(N)=O)CC2)c2ccc(Cl)cc21`, the IC50 was 0.1 nM in data set [1] and over 100 nM in data set [2].
`Cn1cncc1[C@](C)(O)C1=Cc2cccnc2[C@@H](N2CCN(C(=O)OC3(C)CCCCC3)CC2)c2ccc(Cl)cc21` returned an IC50 in data set [2] of 45 nM.
With `CCC(O)(C1=Cc2cccnc2[C@@H](N2CCN(C(=O)OC(C)(C)C)CC2)c2ccc(Cl)cc21)c1cncn1C` (mixture of isomers), the IC50 in data set [1] came to 5 nM; in [2], 50 nM.
Regarding `Cn1cncc1C(=O)C1=Cc2cccnc2[C@@H](N2CCN(C(=O)OC(C)(C)C)CC2)c2ccc(Cl)cc21`, the IC50 in data set [1] was over 18 nM.
For the molecule `Cn1cncc1C(C)(O)[C@]12C[C@H]1c1cccnc1[C@@H](N1CCN(C(=O)OC(C)(C)C)CC1)c1ccc(Cl)cc12` (stereo partly specified), the IC50 in [1] is over 18 nM; in data set [2], over 100 nM.
For the molecule `Cn1cncc1[C@@](C)(O)C1=Cc2cccnc2[C@@H](N2CCN(C(=O)Nc3ccc(C#N)cc3)CC2)c2ccc(Cl)cc21`, the IC50 in data set [1] was determined as 0.8 nM; in data set [2], 2 nM.
What is called Cmax is the maximum level reached in the sampled fluid or tissue. For orientation: AUC means concentration integrated over time. Usually bioavailability stands for dose-corrected exposure relative to a reference, in per cent. `Cn1cncc1[C@@](C)(O)C1=Cc2cccnc2[C@@H](N2CCN(C(=O)OC(C)(C)C)CC2)c2ccc(Cl)cc21`: the Cmax in data set [4] was found to be 18000 nM; in [9], 1500 nM; in data set [11], 600 nM; in [14], 700 nM. Moreover, the TGI result in data set [5] was “Active”. Moreover, the AUC in [6] was 8.4 µM·h; in data set [7], 3.2 µM·h; in data set [8] it was 82 µM·h; in data set [10] it was 1.8 µM·h. In addition, the IC50 is 1.4 nM in data set [1], 1.3 nM in [2] and 300 nM in data set [13]. The bioavailability in data set [12], in data set [16], in [17] and in data set [20] was 34% throughout. Also, the result in [15] and in data set [19] was Active. For the same molecule, the Activity entry is “Dose-dependent effect” in data set [18] and “Non-toxic” in [21].
In the case of `Cn1cncc1[C@](C)(O)C1=Cc2cccnc2[C@@H](N2CCN(C(=O)NC3CCCCC3)CC2)c2ccc(Cl)cc21`, the IC50 was found to be 0.4 nM in data set [1] and 1.7 nM in data set [2].
With `Cn1cncc1[C@](C)(O)C1=Cc2cccnc2[C@@H](N2CCN(C(=O)OC3CCCCC3)CC2)c2ccc(Cl)cc21`, the IC50 in data set [1] amounted to 1.4 nM; in data set [2], 6.2 nM.
As a reminder, the AUC(0-t) is the area under the concentration-time curve up to a stated or last time point. Take `Cn1cncc1[C@](C)(O)C1=Cc2cccnc2[C@@H](N2CCN(C(=O)OC(C)(C)C)CC2)c2ccc(Cl)cc21`: the figures for the half-inhibitory concentration (IC50) in [1] and in data set [2] were 2.6 nM and 30 nM, respectively. The molecule further registered an AUC(0-t) at 6 h in data set [22] of 3.1 µM·h.
For the molecule `Cn1cncc1[C@@H](O)C1=Cc2cccnc2[C@@H](N2CCN(C(=O)OC(C)(C)C)CC2)c2ccc(Cl)cc21`, the IC50 in data set [1] came out at 12 nM.
`Cn1cncc1[C@](C)(O)C1=Cc2cccnc2[C@@H](N2CCN(C(=O)Nc3ccc(C#N)cc3)CC2)c2ccc(Cl)cc21`: the values for the IC50 in data set [1] and in data set [2] were 1.8 nM and 4 nM, respectively.
With `CC(C)OC(=O)N1CCN([C@H]2c3ccc(Cl)cc3C([C@@](C)(O)c3cncn3C)=Cc3cccnc32)CC1`, the IC50 in data set [1] amounted to 0.6 nM; in data set [2], 10 nM.
In the same order, the values of `Cn1cncc1[C@@](C)(O)C1=Cc2cccnc2[C@@H](N2CCN(C(=O)OC3CCCCC3)CC2)c2ccc(Cl)cc21` are 1.7 nM and 3.5 nM.
Taken in the same sequence, the figures for `Cn1cncc1[C@](C)(O)C1=Cc2cccnc2[C@@H](N2CCN(C(N)=O)CC2)c2ccc(Cl)cc21` were over 20 nM and over 100 nM.
As to `Cn1cncc1[C@H](O)C1=Cc2cccnc2[C@@H](N2CCN(C(=O)OC(C)(C)C)CC2)c2ccc(Cl)cc21`, the IC50 is 0.3 nM in data set [1] and 0.5 nM in data set [2].
For the molecule `Cn1cncc1[C@@](C)(O)C1=Cc2cccnc2[C@@H](N2CCN(C(=O)NC(C)(C)C)CC2)c2ccc(Cl)cc21`, the IC50 stood at 0.9 nM in data set [1] and 5 nM in data set [2].
For `Cn1cncc1[C@](C)(O)C1=Cc2cccnc2[C@@H](N2CCN(C(=O)NC(C)(C)C)CC2)c2ccc(Cl)cc21`, the results for the IC50 in [1] and in [2] were 0.7 nM and 37 nM, respectively.
`CC(C)OC(=O)N1CCN([C@H]2c3ccc(Cl)cc3C([C@](C)(O)c3cncn3C)=Cc3cccnc32)CC1`: the IC50 in [1] came out at 0.2 nM; in data set [2], 2 nM.
As for `Cn1cncc1C(=O)[C@]12C[C@H]1c1cccnc1[C@@H](N1CCN(C(=O)OC(C)(C)C)CC1)c1ccc(Cl)cc12`, the results for the IC50 in data set [1] and in data set [2] were 3.2 nM and 6 nM, respectively.
